# In patent US20210106703A1, “RADIOIMMUNOCONJUGATES IN COMBINATION WITH OTHER DRUGS AS TREATMENT AGAINST NHL” (Nordic Nanovector ASA, priority 2017, published 2021):
# Where two headings read alike, the source gives them in different places.
# What was measured:
# RIVA cells = assay: Real Time Glo viability assay, Betalutin and cell cycle inhibitors (Example 2); format: cell-based, human; details: RIVA; for viability at 0.1 µM / viability at 1 µM: Homo sapiens, read-out: Growth inhibition (signal treated/control; 1 = no change)
# Method: (§1) Cells were split twice a week 1:3-1:5 depending on cell density. […] Real Time Glo was purchased from Promega. 384 well plates were purchased from Greiner Bio-One.
# (§2) Cells were treated for 18-20 h with Betalutin at a final concentration of 1 μg/ml and 2 μg/ml in 6-well cell culture plates with shaking. After treatment, PBS was added to the cells, and the cells pelleted. Cells were first resuspended in 1 ml PBS, then washed twice in PBS and finally diluted in growth medium at the desired concentration. All cell lines were treated at a cell concentration of 2.5*10^6 cells/ml.
# (§3) Regardless of cell number the culturing volume was 25 μl. For Real Time Glo, the Cell Viability Substrate and NanoLuc® Enzyme were diluted 1:500 in growth medium, and 25 μL of diluted reagents added to each well. All reagents were equilibrated to 37° C. Cells were incubated with the reaction mix for 1 h at 37° C. before the first measurement of luminescence. Measurements were repeated as often as required within 72 h after adding the reagents. Digitonin was added to cells at 200 μg/ml to record background luminescence of dead cells. A Tecan SPARK 10M plate reader was used to measure luminescence, with an integration time set to 1 sec.
# (§4) Growth inhibition was calculated by dividing the luminescence signal of the treated cells by the luminescence signal of the control cells for each day of measurement after start of treatment [Table 1].
# (§5) To evaluate effects of the drugs alone [(−)Betalutin] and their combination with Betalutin [(+)Betalutin], we calculated the Z-score for each sample (ZdrugX=1-(+)BetalutindrugX/(−)BetalutindrugX), where (+)BetalutindrugX and (−) BetalutindrugX are the measured luminescence intensity values for drug X in presence and absence of Betalutin, respectively. The calculation of Z-score values separately for each plate enabled comparison of results across plates, despite variations between the plates in overall signal intensity.
# U2932 cells = assay: as above; format: cell-based, human; details: for viability at 0.1 µM / viability at 1 µM: Homo sapiens, read-out: Growth inhibition (signal treated/control; 1 = no change); for viability at 0.1 µM: U2932, U2932, drug 100 nM; for viability at 1 µM: U2932, U2932, drug 1 μM
# Method: as §1, §2, §3, §4, §5
# DOHH2 cells = assay: Cell cycle analysis (PI, Muse flow cytometer); format: cell-based, human
# Method: (§6) Cells were harvested at day 0, 2 h, 18 h, 1 d, 2 d, 3 d, of RIT then fixed in 70% ethanol at −20° C. for 3 hours and stained with Cell Cycle kit (with PI) reagent from Merck Millipore in the dark for 30 min at room temperature before analysis using a Muse® flow cytometer. The percentage of cells in G0/G1, S and G2/M phases was then calculated (mean of three experiments in triplicate).
# (§7) At different times after start of incubation, proteins were extracted to measure the CDK1 phosphorylation levels, in parallel, proliferation was determined and at 18 h and 24 h after start of incubation, the percentage of cells in G2/M was assessed (experiments were performed three time except the cell cycle analysis).
# (§8) Cells were harvested at 0 h, 2 h, 18 h, 1 d, 2 d, 3 d, and fixed in 70% ethanol at −20° C. for at least 3 h. After staining with the Muse® Cell Cycle Assay Kit (Merck Millipore, Molsheim, France) using propidium iodide in the dark at room temperature for 30 min, cell cycle distribution was analyzed using a Muse® flow cytometer. The percentage of cells in the G0/G1, S and G2/M was calculated (mean of three experiments in triplicate) and the effect of WEE-1 and MYT-1 kinase inhibitors on the cell cycle was assessed.
# Ramos cells = assay: Cell cycle analysis (PI, Muse flow cytometer); format: cell-based, human
# Method: as §6, §7, §8
# Rec-1 cells = assay: Cell cycle analysis (PI, Muse flow cytometer); format: cell-based, human
# Method: as §6, §7, §8
# Ramos tumor xenografts = assay: Treatment of mice with tumor xenografts; format: in vivo, athymic mice; details: Ramos xenograft
# Excerpt: Each treatment group included 6-9 mice.
# OCI-Ly8 tumor xenografts = assay: Treatment of mice with tumor xenografts
molecule,measurement,setting,value
Nc1nc(Nc2ccc(S(N)(=O)=O)cc2)nn1C(=O)c1c(F)cccc1F [JNJ-7706621],viability at 0.1 µM,"RIVA cells; drug 100 nM, +Betalutin, Dy3",13%
same,viability at 0.1 µM,"RIVA cells; drug 100 nM, +Betalutin, Dy4",8%
same,viability at 0.1 µM,"RIVA cells; drug 100 nM, +Betalutin, Dy5",4%
same,viability at 0.1 µM,"RIVA cells; drug 100 nM, +Betalutin, Dy6",4%
same,viability at 0.1 µM,"RIVA cells; drug 100 nM, −Betalutin, Dy3",89%
same,viability at 0.1 µM,"RIVA cells; drug 100 nM, −Betalutin, Dy4",82%
same,viability at 0.1 µM,"RIVA cells; drug 100 nM, −Betalutin, Dy5",99%
same,viability at 0.1 µM,"RIVA cells; drug 100 nM, −Betalutin, Dy6",89%
same,viability at 1 µM,"RIVA cells; drug 1 μM, +Betalutin, Dy3",29%
same,viability at 1 µM,"RIVA cells; drug 1 μM, +Betalutin, Dy4",13%
same,viability at 1 µM,"RIVA cells; drug 1 μM, +Betalutin, Dy5",4%
same,viability at 1 µM,"RIVA cells; drug 1 μM, +Betalutin, Dy6",3%
same,viability at 1 µM,"RIVA cells; drug 1 μM, −Betalutin, Dy3",50%
same,viability at 1 µM,"RIVA cells; drug 1 μM, −Betalutin, Dy4",31%
same,viability at 1 µM,"RIVA cells; drug 1 μM, −Betalutin, Dy5",17%
same,viability at 1 µM,"RIVA cells; drug 1 μM, −Betalutin, Dy6",14%
same,Synergy for the combination with Betalutin,RIVA cells; drug 100 nM,Bliss + Z-score
same,Synergy for the combination with Betalutin,RIVA cells; drug 1 μM,Z-score
same,viability at 0.1 µM,"U2932 cells; (+)Betalutin, Dy3",83%
same,viability at 0.1 µM,"U2932 cells; (+)Betalutin, Dy4",82%
same,viability at 0.1 µM,"U2932 cells; (+)Betalutin, Dy5",73%
same,viability at 0.1 µM,"U2932 cells; (+)Betalutin, Dy6",72%
same,viability at 0.1 µM,"U2932 cells; (−)Betalutin, Dy3",90%
same,viability at 0.1 µM,"U2932 cells; (−)Betalutin, Dy4",91%
same,viability at 0.1 µM,"U2932 cells; (−)Betalutin, Dy5",107%
same,viability at 0.1 µM,"U2932 cells; (−)Betalutin, Dy6",116%
same,viability at 1 µM,"U2932 cells; (+)Betalutin, Dy3",39%
same,viability at 1 µM,"U2932 cells; (+)Betalutin, Dy4",26%
same,viability at 1 µM,"U2932 cells; (+)Betalutin, Dy5",16%
same,viability at 1 µM,"U2932 cells; (+)Betalutin, Dy6",11%
same,viability at 1 µM,"U2932 cells; (−)Betalutin, Dy3",53%
same,viability at 1 µM,"U2932 cells; (−)Betalutin, Dy4",36%
same,viability at 1 µM,"U2932 cells; (−)Betalutin, Dy5",25%
same,viability at 1 µM,"U2932 cells; (−)Betalutin, Dy6",20%
same,Synergy for the combination with Betalutin,"U2932 cells; U2932, drug 100 nM",Bliss
C=CCn1c(=O)c2cnc(Nc3ccc(N4CCN(C)CC4)cc3)nc2n1-c1cccc(C(C)(C)O)n1 [MK-1775],"Proportion of cells in G2/M, inhibitor combined with ^177Lu-lilotomab","DOHH2 cells; DOHH2, 1 μM inhibitor + ^177Lu-lilotomab, versus ^177Lu-lilotomab alone or untreated",reduction of the fraction of G2/M cells
same,"Proportion of cells in G2/M, inhibitor combined with ^177Lu-lilotomab","Ramos cells; 1 μM inhibitor + ^177Lu-lilotomab, versus ^177Lu-lilotomab alone or untreated",reduction of the fraction of G2/M cells
same,"Proportion of cells in G2/M, inhibitor combined with ^177Lu-lilotomab","Rec-1 cells; Rec-1, 1 μM inhibitor + ^177Lu-lilotomab, versus ^177Lu-lilotomab alone or untreated",reduction of the fraction of G2/M cells
same,viability at 0.1 µM,"RIVA cells; drug 100 nM, +Betalutin, Dy3",49%
same,viability at 0.1 µM,"RIVA cells; drug 100 nM, +Betalutin, Dy4",38%
same,viability at 0.1 µM,"RIVA cells; drug 100 nM, +Betalutin, Dy5",24%
same,viability at 0.1 µM,"RIVA cells; drug 100 nM, +Betalutin, Dy6",23%
same,viability at 0.1 µM,"RIVA cells; drug 100 nM, −Betalutin, Dy3",100%
same,viability at 0.1 µM,"RIVA cells; drug 100 nM, −Betalutin, Dy4",89%
same,viability at 0.1 µM,"RIVA cells; drug 100 nM, −Betalutin, Dy5",94%
same,viability at 0.1 µM,"RIVA cells; drug 100 nM, −Betalutin, Dy6",94%
same,viability at 1 µM,"RIVA cells; drug 1 μM, +Betalutin, Dy3",2%
same,viability at 1 µM,"RIVA cells; drug 1 μM, +Betalutin, Dy4",1%
same,viability at 1 µM,"RIVA cells; drug 1 μM, +Betalutin, Dy5",1%
same,viability at 1 µM,"RIVA cells; drug 1 μM, +Betalutin, Dy6",1%
same,viability at 1 µM,"RIVA cells; drug 1 μM, −Betalutin, Dy3",8%
same,viability at 1 µM,"RIVA cells; drug 1 μM, −Betalutin, Dy4",4%
same,viability at 1 µM,"RIVA cells; drug 1 μM, −Betalutin, Dy5",2%
same,viability at 1 µM,"RIVA cells; drug 1 μM, −Betalutin, Dy6",1%
same,viability at 0.1 µM,"U2932 cells; (+)Betalutin, Dy3",120%
same,viability at 0.1 µM,"U2932 cells; (+)Betalutin, Dy4",95%
same,viability at 0.1 µM,"U2932 cells; (+)Betalutin, Dy5",85%
same,viability at 0.1 µM,"U2932 cells; (+)Betalutin, Dy6",71%
same,viability at 0.1 µM,"U2932 cells; (−)Betalutin, Dy3",100%
same,viability at 0.1 µM,"U2932 cells; (−)Betalutin, Dy4",90%
same,viability at 0.1 µM,"U2932 cells; (−)Betalutin, Dy5",92%
same,viability at 0.1 µM,"U2932 cells; (−)Betalutin, Dy6",103%
same,viability at 1 µM,"U2932 cells; (+)Betalutin, Dy3",104%
same,viability at 1 µM,"U2932 cells; (+)Betalutin, Dy4",94%
same,viability at 1 µM,"U2932 cells; (+)Betalutin, Dy5",89%
same,viability at 1 µM,"U2932 cells; (+)Betalutin, Dy6",80%
same,viability at 1 µM,"U2932 cells; (−)Betalutin, Dy3",86%
same,viability at 1 µM,"U2932 cells; (−)Betalutin, Dy4",89%
same,viability at 1 µM,"U2932 cells; (−)Betalutin, Dy5",96%
same,viability at 1 µM,"U2932 cells; (−)Betalutin, Dy6",115%
same,Median survival,"Ramos tumor xenografts; 250 MBq/kg ^177Lu-lilotomab + 30 mg/kg MK-1775 twice a day, day 1 to 5",47 days
same,Tumor growth versus 250 MBq/kg ^177Lu-lilotomab alone,"Ramos tumor xenografts; 250 MBq/kg ^177Lu-lilotomab + MK-1775, p=0.001",significantly delayed tumor growth
same,Tumor growth delay versus ^177Lu-lilotomab alone,"OCI-Ly8 tumor xenografts; 250 MBq/kg ^177Lu-lilotomab + MK-1775, p=0.05",significantly better
same,Efficacy of combination versus 500 MBq/kg ^177Lu-lilotomab alone,"OCI-Ly8 tumor xenografts; 250 MBq/kg ^177Lu-lilotomab + MK-1775, p=0.7070",as efficient as 500 MBq/kg
same,Therapeutic efficacy compared with control,OCI-Ly8 tumor xenografts; single agent,no therapeutic efficacy
"Lutetium-177 [^177Lu]-lilotomab satetraxetan (conjugate, chains of the INN, looked up, 177Lu satetraxetan chelator conjugate) VH: EIQLQQSGPELVKPGASVKVSCKASGYSFTDYNMYWVKQSHGKSLEWIGYIDPYNGDTTYNQKFKGKATLTVDKSSSTAFIHLNSLTSEDSAVYYCARSPYGHYAMDYWGQGTSVTVSS VL: DIVMTQSHKLLSTSVGDRVSITCKASQDVSTAVDWYQQKPGQSPKLLINWASTRHTGVPDRFTGSGSGTDYTLTISSMQAEDLALYYCRQHYSTPFTFGSGTKLEIK",Proportion of cells showing a G2/M cell cycle arrest,"DOHH2 cells; DOHH2, 6 MBq/mL, at 24 h",45±11%
same,Proportion of cells showing a G2/M cell cycle arrest,"Ramos cells; 6 MBq/mL, at 24 h",64±16%
same,Proportion of cells showing a G2/M cell cycle arrest,"Rec-1 cells; Rec-1, 6 MBq/mL, at 24 h",44±11%
same,Median survival,Ramos tumor xenografts; 250 MBq/kg ^177Lu-lilotomab alone,40 days
same,Median survival,"OCI-Ly8 tumor xenografts; 250 MBq/kg, p=0.0062",significantly improved
same,Tumor growth delay,"OCI-Ly8 tumor xenografts; 250 MBq/kg, p=0.015",significantly improved
